Patent publication US20230092890A1, “1, 3, 4-Oxadiazole derivative compounds as histone deacetylase 6 inhibitor, and the pharmaceutical composition comprising the same” (Chong Kun Dang Pharmaceutical Corp., priority 2019, published 2023)
Like-named read-outs stand apart in the source and are kept apart here.

Assays:
[1] = target: T1, HDAC6 human recombinant (Homo sapiens, UniProt Q9UBN7); experiment: HDAC enzyme activity inhibition (in vitro), HDAC6 assay; type: biochemical
T1 construct: purchased Calbiochem 382180
T1 sequence (Q9UBN7 1-1215): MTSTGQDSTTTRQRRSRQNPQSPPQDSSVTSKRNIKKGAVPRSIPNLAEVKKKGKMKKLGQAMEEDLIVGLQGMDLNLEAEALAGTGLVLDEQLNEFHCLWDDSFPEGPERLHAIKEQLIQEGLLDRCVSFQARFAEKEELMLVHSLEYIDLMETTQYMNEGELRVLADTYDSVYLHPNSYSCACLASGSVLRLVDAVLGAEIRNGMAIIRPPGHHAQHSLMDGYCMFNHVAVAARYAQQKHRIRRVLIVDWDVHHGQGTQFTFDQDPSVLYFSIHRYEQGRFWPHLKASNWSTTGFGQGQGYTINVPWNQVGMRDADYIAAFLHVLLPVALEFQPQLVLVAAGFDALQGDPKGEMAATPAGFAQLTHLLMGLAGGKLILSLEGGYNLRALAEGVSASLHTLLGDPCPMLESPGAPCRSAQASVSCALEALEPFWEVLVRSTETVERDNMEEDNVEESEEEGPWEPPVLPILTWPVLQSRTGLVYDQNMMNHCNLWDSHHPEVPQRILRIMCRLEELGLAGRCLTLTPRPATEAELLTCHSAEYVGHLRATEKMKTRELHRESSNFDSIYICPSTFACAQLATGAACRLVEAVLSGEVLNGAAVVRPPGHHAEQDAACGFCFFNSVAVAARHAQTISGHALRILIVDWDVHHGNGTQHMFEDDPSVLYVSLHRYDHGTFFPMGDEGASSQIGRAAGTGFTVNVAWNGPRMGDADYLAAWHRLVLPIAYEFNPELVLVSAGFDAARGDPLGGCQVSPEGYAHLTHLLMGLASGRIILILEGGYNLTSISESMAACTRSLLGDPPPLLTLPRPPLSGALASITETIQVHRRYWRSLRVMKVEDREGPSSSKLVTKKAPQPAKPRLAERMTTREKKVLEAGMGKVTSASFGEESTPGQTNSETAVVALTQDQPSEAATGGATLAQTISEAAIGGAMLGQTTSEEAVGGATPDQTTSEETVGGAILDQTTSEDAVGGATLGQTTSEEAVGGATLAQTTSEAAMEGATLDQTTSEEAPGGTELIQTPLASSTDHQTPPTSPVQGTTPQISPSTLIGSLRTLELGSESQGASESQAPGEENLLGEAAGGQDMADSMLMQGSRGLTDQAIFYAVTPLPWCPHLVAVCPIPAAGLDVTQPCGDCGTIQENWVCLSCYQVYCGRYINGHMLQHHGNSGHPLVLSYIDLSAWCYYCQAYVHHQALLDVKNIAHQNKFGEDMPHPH
How it was run: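 HDAC6 human recombinant enzyme with fluorimetric substrate; […]. Reaction 60 min at 37° C, then developer 30 min at 37° C; fluorescence read at Ex 390/Em 460.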

[2] = target: T2, HDAC1 (Homo sapiens, UniProt Q13547); experiment: HDAC enzyme activity inhibition (in vitro), HDAC1 Fluorimetric Drug Discovery Assay Kit; type: biochemical
T2 construct: purchased Enzolifesciences BML-AK511
T2 sequence (Q13547 whole entry): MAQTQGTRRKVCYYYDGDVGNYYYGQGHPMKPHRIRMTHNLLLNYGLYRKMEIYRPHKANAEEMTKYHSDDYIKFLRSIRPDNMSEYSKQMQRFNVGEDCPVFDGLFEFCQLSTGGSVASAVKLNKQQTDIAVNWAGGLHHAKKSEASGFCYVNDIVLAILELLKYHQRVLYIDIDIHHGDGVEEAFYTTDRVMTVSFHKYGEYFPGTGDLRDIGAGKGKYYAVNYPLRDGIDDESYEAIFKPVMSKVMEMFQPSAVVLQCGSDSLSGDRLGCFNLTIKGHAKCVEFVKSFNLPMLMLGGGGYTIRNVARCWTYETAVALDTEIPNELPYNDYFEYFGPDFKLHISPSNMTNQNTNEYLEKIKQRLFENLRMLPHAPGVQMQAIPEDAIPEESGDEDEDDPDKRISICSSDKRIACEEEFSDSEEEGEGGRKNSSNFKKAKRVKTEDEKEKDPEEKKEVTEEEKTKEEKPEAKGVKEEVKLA
How it was run: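 Compounds at 100, 1000, 10000 nM (HDAC1) or 0.1, 1, 10, 100, 1000 nM (HDAC6); 37° C, 60 min; developer, 37° C, 30 min; fluorescence Ex 390/Em 460.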

[3] = samples at 0.1, 1, 10, 100 and 1000 nM, 37° C. 60 minutes, fluorescence Ex 390, Em 460, read-out: HDAC6 IC50
[4] = samples at 100, 1000 and 10000 nM, 37° C. 60 minutes, fluorescence Ex 390, Em 460, read-out: HDAC1 IC50

SMILES | IC50 [1, 3] [nM] | IC50 [2, 4] [µM] | IC50 [1] [nM] | IC50 [2] [µM]
O=c1n(Cc2ccc(-c3nnc(C(F)F)o3)cn2)c2cc(F)c(N3CCN(Cc4cccc5[nH]ccc45)CC3)cc2n1C1COC1 [Compound 322, 5-(4-((1H-indole-4-yl)methyl)piperazine-1-yl)-1-((5-(5-(difluoromethyl)-1,3,4-oxadiazole-2-yl)pyridine-2-yl)methyl)-6-fluoro-3-(oxetan-3-yl)-1,3-dihydro-2H-benzo[d]imidazole-2-one] | 29 | > 10 |  | 
Cn1c(=O)n(Cc2ccc(-c3nnc(C(F)F)o3)cn2)c2ccc(-c3cccc4[nH]ccc34)cc21 [Compound 212, 1-((5-(5-(difluoromethyl)-1,3,4-oxadiazole-2-yl)pyridine-2-yl)methyl)-5-(1H-indole-4-yl)-3-methyl-1,3-dihydro-2H-benzo[d]imidazole-2-one] | 10 | > 10 |  | 
O=c1n(Cc2ccc(-c3nnc(C(F)F)o3)cn2)c2cc(F)c(-c3cn[nH]c3)cc2n1C1CN(C2COC2)C1 [Compound 312, 1-((5-(5-(difluoromethyl)-1,3,4-oxadiazole-2-yl)pyridine-2-yl)methyl)-6-fluoro-3-(1-(oxetan-3-yl)azetidine-3-yl)-5-(1H-pyrazole-4-yl)-1,3-dihydro-2H-benzo[d]imidazole-2-one] | 6 | > 10 |  | 
CC(C)N1CCC(n2c(=O)n(Cc3ccc(-c4nnc(C(F)F)o4)cn3)c3cc(Cl)ccc32)CC1 [Compound 214, 5-chloro-3-((5-(5-(difluoromethyl)-1,3,4-oxadiazole-2-yl)pyridine-2-yl)methyl)-1-(1-isopropylpiperidine-4-yl)-1,3-dihydro-2H-benzo[d]imidazole-2-one] | 15 | > 10 |  | 
Cn1c(=O)n(Cc2ccc(-c3nnc(C(F)F)o3)cn2)c2cc(F)c(-c3cccc(F)c3)cc21 [Compound 166, 1-((5-(5-(difluoromethyl)-1,3,4-oxadiazole-2-yl)pyridine-2-yl)methyl)-6-fluoro-5-(3-fluorophenyl)-3-methyl-1,3-dihydro-2H-benzo[d]imidazole-2-one] | 34 | > 10 |  | 
O=c1n(Cc2ccc(-c3nnc(C(F)F)o3)cn2)c2cc(Cl)c(Cl)cc2n1C1CCN(C2COC2)CC1 [Compound 82, 5,6-dichloro-1-((5-(5-(difluoromethyl)-1,3,4-oxadiazole-2-yl)pyridine-2-yl)methyl)-3-(1-(oxetan-3-yl)piperidine-4-yl)-1,3-dihydro-2H-benzo[d]imidazole-2-one] | 23 | > 10 |  | 
CN1CCC(n2c(=O)n(Cc3ccc(-c4nnc(C(F)F)o4)cc3F)c3cc(-c4ccc(C(F)(F)F)cc4)ccc32)CC1 [Compound 122, 3-(4-(5-(difluoromethyl)-1,3,4-oxadiazole-2-yl)-2-fluorobenzyl)-1-(1-methylpiperidine-4-yl)-5-(4-(trifluoromethyl)phenyl)-1,3-dihydro-2H-benzo[d]imidazole-2-one] | > 5000 | > 10 |  | 
CN1CCC(n2c(=O)n(Cc3ccc(-c4nnc(C(F)F)o4)cc3)c3cc(Br)ccc32)CC1 [Compound 126, 5-bromo-3-(4-(5-(difluoromethyl)-1,3,4-oxadiazole-2-yl)benzyl)-1-(1-methylpiperidine-4-yl)-1,3-dihydro-2H-benzo[d]imidazole-2-one] | 29 | > 10 |  | 
Cn1c(=O)n(Cc2ccc(-c3nnc(C(F)F)o3)cc2F)c2cc(F)c(-c3cccnc3)cc21 [Compound 169, 1-(4-(5-(difluoromethyl)-1,3,4-oxadiazole-2-yl)-2-fluorobenzyl)-6-fluoro-3-methyl-5-(pyridine-3-yl)-1,3-dihydro-2H-benzo[d]imidazole-2-one] | 21 | > 10 |  | 
O=c1n(Cc2ccc(-c3nnc(C(F)F)o3)cn2)c2cc(Cl)ccc2n1C1CCN(CC(F)(F)C(F)F)CC1 [Compound 235, 5-chloro-3-((5-(5-(difluoromethyl)-1,3,4-oxadiazole-2-yl)pyridine-2-yl)methyl)-1-(1-(2,2,3,3-tetrafluoropropyl)piperidine-4-yl)-1,3-dihydro-2H-benzo[d]imidazole-2-one] | 103 | > 10 |  | 
CC(=O)N1CCC(n2c(=O)n(Cc3ccc(-c4nnc(C(F)F)o4)cn3)c3c(F)cccc32)CC1 [Compound 171, 1-(1-acetylpiperidine-4-yl)-3-((5-(5-(difluoromethyl)-1,3,4-oxadiazole-2-yl)pyridine-2-yl)methyl)-4-fluoro-1,3-dihydro-2H-benzo[d]imidazole-2-one] | 40 | > 10 |  | 
CN1CCC(n2c(=O)n(Cc3ccc(-c4nnc(C(F)F)o4)cc3)c3cc(-c4cc(F)ccc4F)ccc32)CC1 [Compound 128] | 798 | > 10 |  | 
CC(=O)N1CCC(N2CCC(n3c(=O)n(Cc4ccc(-c5nnc(C(F)F)o5)cn4)c4cc(F)ccc43)CC2)CC1 [Compound 59, 1-(1′-acetyl-[1,4′-bipiperidine]-4-yl)-3-((5-(5-(difluoromethyl)-1,3,4-oxadiazole-2-yl)pyridine-2-yl)methyl)-5-fluoro-1,3-dihydro-2H-benzo[d]imidazole-2-one] |  |  | 38 | > 10
Cc1ccc(C(=O)N2CCC(n3c(=O)n(Cc4ccc(-c5nnc(C(F)F)o5)cn4)c4cc(F)ccc43)CC2)o1 [Compound 66, 3-((5-(5-(difluoromethyl)-1,3,4-oxadiazole-2-yl)pyridine-2-yl)methyl)-5-fluoro-1-(1-(5-methylfuran-2-carbonyl)piperidine-4-yl)-1,3-dihydro-2H-benzo[d]imidazole-2-one] | 72 | > 10 |  | 
O=c1n(Cc2ccc(-c3nnc(C(F)F)o3)cn2)c2cc(F)c(-c3cccc4[nH]ccc34)cc2n1C1CN(C2COC2)C1 [Compound 310, 1-((5-(5-(difluoromethyl)-1,3,4-oxadiazole-2-yl)pyridine-2-yl)methyl)-6-fluoro-5-(1H-indole-4-yl)-3-(1-(oxetan-3-yl)azetidine-3-yl)-1,3-dihydro-2H-benzo[d]imidazole-2-one] | 6 | > 10 |  | 
O=c1n(Cc2ccc(-c3nnc(C(F)F)o3)cc2F)c2ccccc2n1CC1CCN(C2COC2)CC1 [Compound 39, 1-(4-(5-(difluoromethyl)-1,3,4-oxadiazole-2-yl)-2-fluorobenzyl)-3-((1-(oxetan-3-yl)piperidine-4-yl)methyl)-1,3-dihydro-2H-benzo[d]imidazole-2-one] | 167 | > 10 |  | 
Cn1c(=O)n(Cc2ccc(-c3nnc(C(F)F)o3)cn2)c2ccc(-c3ccc(S(C)(=O)=O)cc3)cc21 [Compound 220, 1-((5-(5-(difluoromethyl)-1,3,4-oxadiazole-2-yl)pyridine-2-yl)methyl)-3-methyl-5-(4-(methylsulfonyl)phenyl)-1,3-dihydro-2H-benzo[d]imidazole-2-one] | 18 | > 10 |  | 
O=c1n(Cc2ccc(-c3nnc(C(F)F)o3)cn2)c2cc(Cl)ccc2n1C1CCN(CC(F)(F)C(F)(F)C(F)(F)F)CC1 [Compound 232, 5-chloro-3-((5-(5-(difluoromethyl)-1,3,4-oxadiazole-2-yl)pyridine-2-yl)methyl)-1-(1-(2,2,3,3,4,4,4-heptafluorobutyl)piperidine-4-yl)-1,3-dihydro-2H-benzo[d]imidazole-2-one] |  |  | 643 | > 10
CN1CCN(c2ncc(-c3cc4c(cc3F)n(Cc3ccc(-c5nnc(C(F)F)o5)cn3)c(=O)n4C)cn2)CC1 [Compound 342, 1-((5-(5-(difluoromethyl)-1,3,4-oxadiazole-2-yl)pyridine-2-yl)methyl)-6-fluoro-3-methy 1-5-(2-(4-methylpiperazine-1-yl)pyrimidine-5-yl)-1,3-dihydro-2H-benzo[d]imidazole-2-one] | 16 | > 10 |  | 
